Values quoted from earlier work, collected in patent publication US11248001B2, “PCSK9 inhibitors and methods of use thereof” (ASTRAZENECA AB, priority 2019, dated 2022).

Details: clinical trials, patients

| Molecule | decrease in LDL levels |
| --- | --- |
| alirocumab | about 50% |
| evolocumab (antibody, chains of the INN, looked up, V domains shown) VH: EVQLVQSGAEVKKPGASVKVSCKASGYTLTSYGISWVRQAPGQGLEWMGWVSFYNGNTNYAQKLQGRGTMTTDPSTSTAYMELRSLRSDDTAVYYCARGYGMDVWGQGTTVTVSS VL: ESALTQPASVSGSPGQSITISCTGTSSDVGGYNSVSWYQQHPGKAPKLMIYEVSNRPSGVSNRFSGSKSGNTASLTISGLQAEDEADYYCNSYTSTSMVFGGGTKLTVL | 60-75% |
